# Where two headings read alike, the source gives them in different places. No end group written: not given here.
# Columns and labels:
# [1] = Collateral vessel presentation after femoral artery removal; format: in vivo, rats; details: 5-10 min after removal of femoral artery part; local 1 min bath (bepecin 10 μg/kg, L-arginine 100 mg/kg, L-NAME 5 mg/kg)
# Source text: Bepecin has a particular beneficial effect after large blood vessel removal. Unlike L-NAME and L-arginine, bepecin rapidly bridges defect between the stumps of the vessel, thus even in the case of the worst scenario, rapidly reorganizing blood supply. Part of femoral artery in rats (between a. epigastrica caudalis and a. femoralis circumflexa lateralis) was removed in order to investigate collateral vessel presentation within vascular defect following formation of critical size vascular defect. Collateral vessel presentation within vascular defect was assessed according to the method described for microangiographic assessment in Cardiovasc Res. 1997 September; 35(3): 547-52. Thermographic imaging was performed using an infrared camera.
# HSV-1 and HSV-2 = test: Newborn mice, intracerebral inoculation with HSV-1 and HSV-2; format: in vivo; details: lethally infected newborn mice; agents applied 48 or 72 hours after viral infection; bepecin 10 and 100 μg/kg, acyclovir 10 and 100 mg/kg
# [2] = Anaphylactoid reaction induced by dextran and/or egg white; format: in vivo, rats, mouse; details: dextran and/or egg white i.v.; bepecin 10 μg, 1 μg, 10 ng, 10 pg/kg; clomipramine 20 mg/kg, cimetidine 10 mg/kg alone
# [3] = Accelerated ageing at 50° C. and relative humidity of 65%; format: physicochemical
# [4] = Stability in water solutions (1 g/100 ml) at 50° C.; format: physicochemical; details: for Pentadecapeptide content decrement in water at 50° C./time (hours): 20: 20 hours; for Pentadecapeptide content decrement in water at 50° C./time (hours): 65: 65 hours; for Pentadecapeptide content decrement in water at 50° C./time (hours): 148: 148 hours; for Pentadecapeptide content decrement in water at 50° C./time (hours): 388: 388 hours; for Pentadecapeptide content decrement in water at 50° C./time (hours): start/0: start/0 hours
# Description: (§1) This addition will be in the range from 0.5 mg to 3.0 mg per 1 mg of bepecin. […] The stability of bepecin salt with L-arginine in water solutions was determined after incubation of aqueous salt solutions in concentration 1 g/100 ml, at 50° C., and in a separate test in very stringent conditions: at 100° C., where the decomposition was determined after one hour.
# [5] = simulated gastric fluid, 37° C.
# [6] = 37° C.; for Pentadecapeptide content decrement (rel. %) in gastric juice at pH = 2.0, 2.5 hours: 150 min; for Pentadecapeptide content decrement (rel. %) in gastric juice at pH = 4.0, 6 hours: 360 min; for Pentadecapeptide content decrement (rel. %) in gastric juice at pH = 4.0, 7 hours: 420 min; for Pentadecapeptide content decrement (rel. %) in gastric juice at pH = 4.0, 8 hours: 480 min; for Pentadecapeptide content decrement (rel. %) in gastric juice at pH = 2.0, 1.5 hours: 90 min
# Acute toxicity = format: in vivo, Wistar Albino rats; details: 1 g/kg body weight, intraperitoneally, intravenously or intragastrically
# [7] = Stability in water at 100° C., 1 hour; format: physicochemical
# Description: as §1
# [8] = 1 g/100 ml of water, 20° C., 253.7 nm, 70 min
# in vitro = details: artificial gastric juice with pepsin, 37° C.
# [9] = intravenously, orally or intraperitoneally, 10 ng to 100 mg/kg; cited from earlier work
# [10] = Bleeding and thrombocytopenia after amputation; format: in vivo, rats; details: bepecin by itself
# Description: Bepecin was administered intraperitoneally, intravenously or intragastrically (10 μg/kg, 10 ng/kg body weight).
# [11] = pH 2, Pentadecapeptide content decrement (rel. %) in gastric juice at pH = 2.0, 0.5 hours, pH 2.0
# [12] = pH 3, Pentadecapeptide content decrement (rel. %) in gastric juice at pH = 3.0, 0.5 hours, pH 3.0
# [13] = pH 2, Pentadecapeptide content decrement (rel. %) in gastric juice at pH = 2.0, 1.0 hours, pH 2.0, 1.0 h
# [14] = pH 2, Pentadecapeptide content decrement (rel. %) in gastric juice at pH = 2.0, 2.0 hours, pH 2.0, 2.0 h
# [15] = pH 4, Pentadecapeptide content decrement (rel. %) in gastric juice at pH = 4.0, 3 hours, pH 4.0, 3 h
# 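For Pentadecapeptide content decrement (rel. %) in gastric juice at pH = 2.0, 0 hours in this document: peptide salt at 10 mg/5 ml incubated in artificial gastric juice (HCl, NaCl, pepsin 1.0 g/l) at the listed pH and 37° C, peptide content tracked over time.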
# 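For Pentadecapeptide content decrement (rel. %) in gastric juice at pH = 2.0, 2.5 hours in this document: peptide salt at 10 mg/5 ml incubated in artificial gastric juice (HCl, NaCl, pepsin 1.0 g/l) at the listed pH and 37° C, peptide content tracked over time.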
# 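For Pentadecapeptide content decrement (rel. %) in gastric juice at pH = 3.0, 0 hours in this document: peptide salt at 10 mg/5 ml incubated in artificial gastric juice (HCl, NaCl, pepsin 1.0 g/l) at the listed pH and 37° C, peptide content tracked over time.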
# 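For Pentadecapeptide content decrement (rel. %) in gastric juice at pH = 3.0, 3.0 hours in this document: peptide salt at 10 mg/5 ml incubated in artificial gastric juice (HCl, NaCl, pepsin 1.0 g/l) at the listed pH and 37° C, peptide content tracked over time.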
compound,measurement,setting,value
COC(=O)[C@@H](N)CCCNC(=N)N[N+](=O)[O-] [L-NAME],Collateral vessel presentation within vascular defect,[1],no collateral vessels are present
N=C(N)NCCC[C@H](N)C(=O)O [L-arginine],Collateral vessel presentation within vascular defect,[1],"Tiny collateral vessels were present, yet without interconnections"
Nc1nc2c(ncn2COCCO)c(=O)[nH]1 [acyclovir],Survival time (max.),HSV-1 and HSV-2,115 h
same,Survival time (min.),HSV-1 and HSV-2,105 h
CN/C(=N/CCSCc1nc[nH]c1C)NC#N [cimetidine],Effect on anaphylactoid reactions,[2],only poorly effective or even ineffective
CN(C)CCCN1c2ccccc2CCc2ccc(Cl)cc21 [clomipramine],Effect on anaphylactoid reactions,[2],only poorly effective or even ineffective
Bepecin L-Lysine Salt (1:3) [Lys-BPC],Pentadecapeptide content decrement in standing at 50° C. and relat. humidity 65%: 0 day,[3]; 0 day,99.47%
same,Pentadecapeptide content decrement in standing at 50° C. and relat. humidity 65%: 10 days,[3]; 10 days,99.24%
same,Pentadecapeptide content decrement in standing at 50° C. and relat. humidity 65%: 30 days,[3]; 30 days,99.27%
same,Pentadecapeptide content decrement in standing at 50° C. and relat. humidity 65%: 60 days,[3],98.90%
same,Pentadecapeptide content decrement in standing at 50° C. and relat. humidity 65%: 90 days,[3],99.28%
same,Pentadecapeptide content decrement in water at 50° C./time (hours): 20,[4],99.40%
same,Pentadecapeptide content decrement in water at 50° C./time (hours): 65,[4],99.09%
same,Pentadecapeptide content decrement in water at 50° C./time (hours): 148,[4],99.35%
same,Pentadecapeptide content decrement in water at 50° C./time (hours): 388,[4],99.01%
same,Pentadecapeptide content decrement in water at 50° C./time (hours): start/0,[4],99.07%
"GEPPPGKPADDAGLV [Arg-BPC, bepecin L-arginine salt (1:2)]",Pentadecapeptide content decrement in standing at 50° C. and relat. humidity 65%: 60 days,[3],98.96%
same,Pentadecapeptide content decrement in standing at 50° C. and relat. humidity 65%: 90 days,[3],99.07%
same,remaining at 0.5 h,[5]; [11],30.2%
same,remaining at 0.5 h,[5]; [12],98.1%
same,remaining at 1 h,"[5]; pH 4, Pentadecapeptide content decrement (rel. %) in gastric juice at pH = 4.0, 1 hours, pH 4.0, 1 h",99.9%
same,remaining at 2 h,"[5]; pH 4, Pentadecapeptide content decrement (rel. %) in gastric juice at pH = 4.0, 2 hours, pH 4.0, 2 h",99.5%
same,"Pentadecapeptide content decrement (rel. %) in gastric juice at pH = 2.0, 0 hours",[6],100 rel. %
same,"Pentadecapeptide content decrement (rel. %) in gastric juice at pH = 2.0, 2.5 hours",[6],4.9 rel. %
same,"Pentadecapeptide content decrement (rel. %) in gastric juice at pH = 3.0, 0 hours",[6],100 rel. %
same,"Pentadecapeptide content decrement (rel. %) in gastric juice at pH = 3.0, 3.0 hours",[6]; 180 min,90.0 rel. %
same,"Pentadecapeptide content decrement (rel. %) in gastric juice at pH = 4.0, 0 hours",[6]; pH 4.0,100 rel. %
same,"Pentadecapeptide content decrement (rel. %) in gastric juice at pH = 4.0, 6 hours",[6]; pH 4.0,84.6 rel. %
same,"Pentadecapeptide content decrement (rel. %) in gastric juice at pH = 4.0, 7 hours",[6]; pH 4.0,73.5 rel. %
same,"Pentadecapeptide content decrement (rel. %) in gastric juice at pH = 4.0, 8 hours",[6]; pH 4.0,67.2 rel. %
same,Pentadecapeptide content decrement in water at 50° C./time (hours): 20,[4],98.97%
same,Pentadecapeptide content decrement in water at 50° C./time (hours): 65,[4],99.04%
same,Pentadecapeptide content decrement in water at 50° C./time (hours): 148,[4],99.10%
same,Pentadecapeptide content decrement in water at 50° C./time (hours): 388,[4],99.01%
same,pH,[4]; aqueous salt solution 1 g/100 ml,7.35
same,Pentadecapeptide content decrement in water at 50° C./time (hours): start/0,[4],99.05%
same,Acute toxicity,Acute toxicity,no toxicity and no adverse effects
same,Pentadecapeptide content decrement in water at 100° C. - 1 hour: after 1 hour,[7]; after 1 hour,99.08% (unchanged!)
same,Pentadecapeptide content decrement in water at 100° C. - 1 hour: start,[7]; start,99.05%
same,Stability of aqueous solution under ultraviolet light,[8],stable
same,remaining at 1 h,in vitro; [13],13.5%
same,"remaining at 1.5 h, 10 mg/5 ml","in vitro; pH 2, Pentadecapeptide content decrement (rel. %) in gastric juice at pH = 2.0, 1.5 hours, pH 2.0, 1.5 h",8.2%
same,remaining at 2 h,in vitro; [14],6%
same,"remaining at 4 h, 10 mg/5 ml","in vitro; pH 3, Pentadecapeptide content decrement (rel. %) in gastric juice at pH = 3.0, 4.0 hours, pH 3.0, 4.0 h",87.2%
same,"remaining at 5 h, 10 mg/5 ml","in vitro; pH 3, Pentadecapeptide content decrement (rel. %) in gastric juice at pH = 3.0, 5.0 hours, pH 3.0, 5.0 h",84.9%
same,"remaining at 3 h, 10 mg/5 ml",in vitro; [15],98.7%
same,"remaining at 4 h, 10 mg/5 ml","in vitro; pH 4, Pentadecapeptide content decrement (rel. %) in gastric juice at pH = 4.0, 4 hours, pH 4.0, 4 h",96.1%
same,"remaining at 5 h, 10 mg/5 ml","in vitro; pH 4, Pentadecapeptide content decrement (rel. %) in gastric juice at pH = 4.0, 5 hours, pH 4.0, 5 h",89.8%
GEPPPGKPADDAGLV [BPC Na salt],"Pentadecapeptide content decrement (rel. %) in gastric juice at pH = 2.0, 0 hours",[6],100 rel. %
same,"Pentadecapeptide content decrement (rel. %) in gastric juice at pH = 2.0, 1.5 hours",[6],4.4 rel. %
same,"Pentadecapeptide content decrement (rel. %) in gastric juice at pH = 2.0, 2.5 hours",[6],2.7 rel. %
same,"Pentadecapeptide content decrement (rel. %) in gastric juice at pH = 3.0, 0 hours",[6],100 rel. %
same,"Pentadecapeptide content decrement (rel. %) in gastric juice at pH = 3.0, 3.0 hours",[6]; 180 min,40.2 rel. %
same,"Pentadecapeptide content decrement (rel. %) in gastric juice at pH = 4.0, 0 hours",[6]; pH 4.0,100 rel. %
same,"Pentadecapeptide content decrement (rel. %) in gastric juice at pH = 4.0, 3 hours","[6]; pH 4.0, 3 h, 180 min",94.6 rel. %
same,"Pentadecapeptide content decrement (rel. %) in gastric juice at pH = 4.0, 6 hours",[6]; pH 4.0,76.3 rel. %
same,"Pentadecapeptide content decrement (rel. %) in gastric juice at pH = 4.0, 7 hours",[6]; pH 4.0,68.2 rel. %
same,"Pentadecapeptide content decrement (rel. %) in gastric juice at pH = 4.0, 8 hours",[6]; pH 4.0,60.9 rel. %
GEPPPGKPADDAGLV [BPC acetate],remaining at 1 h,[5]; [13],8.2%
same,remaining at 2 h,[5]; [14],2.46%
same,remaining at 3 h,"[5]; pH 3, Pentadecapeptide content decrement (rel. %) in gastric juice at pH = 3.0, 3.0 hours, pH 3.0, 3.0 h",2.5%
same,remaining at 3 h,[5]; [15],72.5%
same,"Pentadecapeptide content decrement (rel. %) in gastric juice at pH = 2.0, 0 hours",[6],100 rel. %
same,"Pentadecapeptide content decrement (rel. %) in gastric juice at pH = 2.0, 1.5 hours",[6],4.75 rel. %
same,"Pentadecapeptide content decrement (rel. %) in gastric juice at pH = 2.0, 2.5 hours",[6],2.1 rel. %
same,"Pentadecapeptide content decrement (rel. %) in gastric juice at pH = 3.0, 0 hours",[6],100 rel. %
same,"Pentadecapeptide content decrement (rel. %) in gastric juice at pH = 4.0, 0 hours",[6]; pH 4.0,100 rel. %
same,"Pentadecapeptide content decrement (rel. %) in gastric juice at pH = 4.0, 6 hours",[6]; pH 4.0,48.8 rel. %
same,"Pentadecapeptide content decrement (rel. %) in gastric juice at pH = 4.0, 7 hours",[6]; pH 4.0,44.6 rel. %
same,"Pentadecapeptide content decrement (rel. %) in gastric juice at pH = 4.0, 8 hours",[6]; pH 4.0,38.0 rel. %
same,"remaining at 0.5 h, 10 mg/5 ml",in vitro; [11],21.4%
same,"remaining at 0.5 h, 10 mg/5 ml",in vitro; [12],41.7%
Gly Glu Pro Pro Pro Gly Lys Pro Ala Asp Asp Ala Gly Leu Val (GEPPPGKPADDAGLV; also: salts with basic amino acids) [Peptide bepecin],"Toxic changes (LD50, acute, subchronic and chronic toxicity)",[9],did not induce any toxic changes
H-GEPPPGKPADDAGLV-OH [Bepecin],Coagulation parameters,[10],does not affect the coagulation parameters by itself

# Reference: patent US9850282B2, “Stable pentadecapeptide salts, a process for preparation thereof, a use thereof in the manufacture of pharmaceutical preparations and a use thereof in therapy” (priority 2013, dated 2017)
